The test system of assay [1] is HTCFs. Description: Lipid Mediator Secretion Assay I (ASA with and without melittin, LC-MS/MS). It counts as cell-based, human. The settings on record: ASA 200 μg/ml. As for the experimental part:
The aim of this experiment was to assess the relative secretion of COX2 vs. acetylated-COX2 products from HTCFs after an inflammatory stimulus followed by exposure to ASA with and without an extremely potent PLA2 agonist—melittin. To this end, multiple primary HTCF cell lines were cultured in DMEM w/10% FBS in 6-well culture plates, incubated at 37 C and 5% CO2, until 90% confluent. The culture media was removed, wells washed with PBS, and then fresh DMEM w/0% FBS was added. After 24 hrs of serum starvation, fresh DMEM w/0% FBS was added, this time containing a physiologically relevant inflammation/wound healing induction mixture (1 ng/ml each of: IL-1b, TNFa, IFNγ, TGFb). After 12 hrs incubation, the induction media was removed, the wells were washed with PBS and fresh DMEM w/0% FBS was added containing one of three experimental treatments for an incubation period of 24 hrs: 1) vehicle control (DMEM w/0% FBS), and 2) ASA 200 (DMEM w/0% FBS and 200 μg/ml ASA), and 3) ASA/Mel. (DMEM w/0% FBS, 200 μg/ml ASA and 10 μg/ml of melittin, a potent PLA2 agonist). At 6, 12 and 24 hrs after addition of the experimental treatments, 250 ul of supernatant was removed from each well, replaced with 250 ul of fresh DMEM w/0% FBS, and stored at −80° C. for subsequent LC-MS/MS analysis. After 24 hrs, the wells were washed with ice cold PBS three times and total cellular protein from the HTCF monolayer was collected for quantification and subsequent western blot analyses. The absolute quantity of protein within each culture well's HTCF monolayer was used as a means to standardize the relative secretion of lipid mediators by HTCFs into the culture well's supernatant.
Relative quantification of secreted lipid mediators was achieved using liquid chromatography tandem mass spectrometry combined with the addition of a known quantity of deuterated versions of the lipid mediators to each sample as internal standards (Item Numbers: #10007737, #320110, #314010, #11182, #315210, #319030, #390030, #10006410, #10006199, #334230, and #10008040, Cayman Chemical). This is a well-established method to determine the relative activity of cyclooxygenase, acetyl-COX2 and lipoxygenase biosynthetic pathways. In brief, the ratios of the integrated areas of the chromatographic peaks corresponding to each analyte and the integrated areas of the peaks corresponding to each analyte's internal standard (with known absolute quantity) are used to determine the relative quantity of each analyte in a given sample. […] The chromatographic profile of the ion count for each m/z transition was monitored, and the area under the peaks (ion intensity vs elution time) was integrated using commercial software (MultiQuant, Sciex).

The subject of assay [2] is human Tenon's capsule fibroblasts (HTCFs). Put plainly: Collagen Contraction Assay I (delayed release fibroblast populated collagen lattice). Type of assay: cell-based.
Experimental: The delayed release fibroblast populated collagen lattice model was used to assess inhibition of gel contraction [58] by ASA and gentamicin. […] Cell free collagen lattices were prepared identically, however to isolate the effects of HTCFs alone on collagen, constructs without HTCFs were cast as a negative control. The cell-collagen solution was pipetted gently to ensure homogenous distribution of HTCFs while avoiding the production of air bubbles, then 500 ul were pipetted into each well of a 24-well tray. Collagen constructs were allowed to polymerize at 37 C for 45 minutes before adding low serum culture media containing DMEM, 2% Fetal Bovine Serum (FBS), 1% penicillin/streptomycin (P/S).
Tension was allowed to build up within the tethered matrix at 37 C and 5% CO2 for 72 hours before a sterile spatula was used to detach each collagen construct from the edges of the culture well. Plates were then immediately scanned on a flat bed laser scanner and then once per hour for the first 12 hours, then daily for a total of 4 days. The surface area of each collagen construct was measured using ImageJ (NIH) and standardized against the baseline surface area measurement to express changes in area as a percentage of original surface area.
Vehicle control treatment solution comprised of DMEM with 2% FBS and 1% penicillin/streptomycin. The gentamicin treatment solution contained DMEM with 2% FBS, 1% penicillin/streptomycin and 1000 μg/ml gentamicin (w/vol) (Sigma-Aldrich, CAT. NO: G1397). The ASA treatment solution contained DMEM with 2% FBS, 1% penicillin/streptomycin and 2000 μg/ml ASA (w/vol) (Sigma-Aldrich, CAT. NO: A5376). The gentamicin-ASA combination treatment solution (Gent+ASA) contained DMEM with 2% FBS, 1% penicillin/streptomycin, 1000 μg/ml gentamicin (w/vol.) and 2000 μg/ml ASA (w/vo).
Culture media was removed from collagen constructs twice daily and replaced with one of the four treatment solutions for a duration of 15 minutes. […]
The subject of assay [3] is HTCFs. Put plainly: Collagen Contraction Assay II (dose dependence). Type of assay: cell-based, human.
Experimental: The cell-collagen solution was pipetted gently to ensure homogenous distribution of HTCFs while avoiding the production of air bubbles, then 500 ul were pipetted into each well of a 24-well tray. Collagen constructs were allowed to polymerize at 37 C for 45 minutes before adding low serum culture media containing DMEM, 2% Fetal Bovine Serum (FBS), 1% penicillin/streptomycin (P/S).
Tension was allowed to build up within the tethered matrix at 37 C and 5% CO2 for 72 hours before a sterile spatula was used to detach each collagen construct from the edges of the culture well. Plates were then immediately scanned on a flat bed laser scanner once per 24 hours for a total of 4 days. The surface area of each collagen construct was measured using ImageJ (NIH) and standardized against the baseline surface area measurement to express changes in area as a percentage of original surface area.
The gentamicin concentrations assessed were delivered in a solution contained DMEM with 2% FBS, 1% penicillin/streptomycin and either 100, 250, 500, 750 or 100 μg/ml gentamicin (Sigma-Aldrich, CAT. NO: G1397). The ASA concentrations assessed were delivered in a solution of DMEM with 2% FBS, 1% penicillin/streptomycin and either 500, 1000 or 1500 μg/ml ASA (Sigma-Aldrich, CAT. NO: A5376). […]
[4] abbreviates: alone or with melittin 10 μg/ml, vs vehicle control.

As to `CC(=O)Oc1ccccc1C(=O)O` [ASA, acetylsalicylic acid], the “relative amount of COX2 products relative to inf. cytokines control” value in the assay on HTCFs [1] is listed as “decrease the relative amount of COX2 products relative to inf. cytokines control”. Besides, the “relative secretion of precursor PUFAs (AA, DHA and EPA)” value in the assay with HTCFs [1] (alone or with melittin 10 μg/ml, supernatant at 6, 12, 24 hrs) is “no significant increase in relative secretion of precursor PUFAs”. In addition, in the assay with HTCFs [1] (setting [4]), the “relative secretion of acetylated-COX2 products” value is listed as “no significant increase in the relative secretion of acetylated-COX2 products” and the “secretion of COX2 products” value is on record as “decrease the secretion of COX2 products relative to vehicle control; however this effect was not statistically significant”. Moreover, the “contraction evident by the end of the four-day period” value in assay [2] (ASA 2000 μg/ml alone) is “approximately 20%”. In assay [2] (gentamicin 1000 μg/ml and/or ASA 2000 μg/ml, 15 minutes twice daily, four day assay, vs vehicle control), the “HTCF mediated collagen contraction” value is on record as “significantly inhibited contraction compared to vehicle control at all time points after the first hour of the experiment”. Moreover, the HTCF-mediated collagen contraction entry in the assay with HTCFs [3] (ASA 500 μg/ml, alone or with gentamicin 100-1000 μg/ml (FIG. 8C)) is recorded as “no significant treatment effects found”. For the same compound, in the assay with HTCFs [3] (ASA alone, 500, 1000, 1500 μg/ml, four days (FIG. 8B)), the HTCF-mediated collagen contraction result was “dose dependent inhibition of HTCF-mediated collagen contraction”.

The values are drawn from patent US20210196731A1, “COMPOSITIONS AND METHODS FOR TREATING OCULAR INFLAMMATION AND OCULAR SCARRING” (priority 2018, published 2021).
